System: 361931-004-R-J1-PDC multicell spheroid viability
Assay: Anticancer human tumor 361931-004-R-J1-PDC patient-derived colon adenocarcinoma cell line growth inhibition [PI3K]
Details: for viability, T/C: stronger effect = lower value
Description: Combinatorial screen of targeted agents with the PI3K inhibitors inavolisib, alpelisib, duvelisib, and copanlisib in multi-cell type tumor spheroids
A high-throughput screen of multi-cell type tumor spheroids was designed to identify active combinations of targeted small molecules and PI3K pathway inhibitors. Complex spheroids include a stromal component modeled by human endothelial cells (HUVEC) and fibroblasts modeled by human mesenchymal stem cells (MSCs). The concentration ranges selected for each drug and investigational agent were based upon clinically achievable concentrations if the clinical Cmax of the agent was known.
Compounds. The drugs and investigational agents: inavolisib (NSC800729), alpelisib (NSC765974), duvelisib (NSC772469), copanlisib (NSC816437), ipatasertib (NSC767898), afuresertib (NSC778305), talazoparib (NSC767125), sapanisertib (NSC764658), selumetinib (NSC741078), tovorafenib (DAY101, NSC766906), vemurafenib (NSC761431), ravoxertinib (NSC781343), sotorasib (NSC818433), MRTX1133 (NSC 836407), abemaciclib (NSC 768073), palbociclib (NSC758247), venetoclax (NSC 766270), SY5609 (NSC837396), enzalutamide (NSC755605), and darolutamide (NSC825331), were obtained from the National Cancer Institute (NCI) Developmental Therapeutics Program Chemical Repository. The FDA-approved anticancer drug set is available from the NCI Developmental Therapeutics Program. […] The stock solutions were prepared in dimethyl sulfoxide (DMSO, Sigma-Aldrich, St. Louis, MO, cat. D2650) at 800-fold the tested concentration and stored at -70 degrees C prior to their use. All drugs and investigational agents were tested over a range starting from a high concentration at or near the clinical Cmax and decreasing in half-log increments. If the clinical Cmax for an agent had not been determined, the highest concentration tested was 10 microM.
Cell Culture. All cells were maintained in an incubator at 37 degrees C and 5% CO2 with 95% humidity. The PDC lines were cultured according to standard operating procedures established by the NCI PDMR (https://pdmr.cancer.gov/sops/default.htm). All PDCs were thawed and cultured in Matrigel-coated flasks prepared with a working solution of 1X Ham's F-12 nutrient mix, without supplementation (Invitrogen, Waltham, MA, cat. 11765054), 100 U/mL penicillin-streptomycin (Invitrogen, cat. 15140122), and 2.5% Matrigel (Corning Inc., Corning, NY, cat. 354248) for the first three passages. The 354836-022-R-J1-PDC, 475296-252-R-J1-PDC, and 997726-040-R-J2-PDC lines were cultured in 6A media, which includes advanced DMEM/F-12 (Thermo Fisher Scientific, cat. 12634028), 10 mM HEPES (Thermo Fisher Scientific, cat. 15630080), 1X GlutaMAX supplement (Thermo Fisher Scientific, cat. 35050061), 0.1 mg/mL primocin (InvivoGen, San Diego, CA, cat. ant-pm-2), 10% defined fetal bovine serum, heat inactivated (HyClone Laboratories Inc., Logan, UT, cat. SH30070.03HI), 50% L-WRN conditioned media (ATCC, cat. CRL-3276), 1.25 mM N-Acetyl-L-cysteine (Sigma-Aldrich, cat. A9165), 10 mM nicotinamide (Sigma-Aldrich, cat. N0636), 1X B-27 supplement (Thermo Fisher Scientific, cat. 17504044), 1X N-2 supplement (Thermo Fisher Scientific, cat. 17502048), and 10 microM Y-27632 dihydrochloride (Tocris Bioscience, Bristol, United Kingdom, cat. 1254). The 624824-186-R-J2-PDC line was cultured in 6C/Colon 1B media, which includes all 6A media components plus 50 ng/mL human EGF recombinant protein (Thermo Fisher Scientific, cat. PHG0311). […]

[1] = curve of first compound, second compound 0.00316 µM
[2] = curve of first compound, second compound 0.01 µM
[3] = curve of first compound, second compound 0.0316 µM
[4] = curve of first compound, second compound 0.1 µM
[5] = curve of first compound, second compound 0.316 µM
[6] = curve of first compound, second compound 1 µM
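Note: spheroids exposed to agents for seven days before readout.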

`CC1(C)CCC(Nc2ncc(C(F)(F)F)c(-c3c[nH]c4c(P(C)(C)=O)c(C#N)ccc34)n2)CN1` (configuration not stated) was tested, and the viability, T/C (compound 0.1 µM) was 94.6% [middle of 4 runs], the viability, T/C (compound 10 µM) was 12.9% [middle of 4 runs] and the IC50 (curve of compound) was 5.63 µM [middle of 4 runs].

In the case of `CNC(=O)c1ccc(N2C(=S)N(c3ccc(C#N)c(C(F)(F)F)c3)C(=O)C2(C)C)cc1F` + CC(Nc1ccc2c(c1)OCCn1cc(N3C(=O)OCC3C(F)F)nc1-2)C(N)=O, the IC50 [1] is reported as over 10000 nM, the IC50 [2] is reported as over 10000 nM and the IC50 [3] is reported as over 10000 nM. For the same compound, the IC50 [4] was over 10000 nM, the IC50 [5] was over 10000 nM and the IC50 [6] was over 10000 nM. For the same compound, the viability, T/C (second compound 0.00316 µM, first compound 0.0316 µM) was 110%, the viability, T/C (second compound 0.00316 µM, first compound 0.1 µM) was 101% and the viability, T/C (second compound 0.00316 µM, first compound 0.316 µM) was 101%. For the same compound, the viability, T/C (second compound 0.00316 µM, first compound 1 µM) was 92.8%, the viability, T/C (second compound 0.00316 µM, first compound 3.16 µM) was 110% and the viability, T/C (second compound 0.00316 µM, first compound 10 µM) was 93.7%. It also gave a viability, T/C (second compound 0.01 µM, first compound 0.0316 µM) of 109%, a viability, T/C (second compound 0.01 µM, first compound 0.1 µM) of 102% and a viability, T/C (second compound 0.01 µM, first compound 0.316 µM) of 85.2%. The viability, T/C (second compound 0.01 µM, first compound 1 µM) was 104%, the viability, T/C (second compound 0.01 µM, first compound 3.16 µM) was 103% and the viability, T/C (second compound 0.01 µM, first compound 10 µM) was 90.4%. It also gave a viability, T/C (second compound 0.0316 µM, first compound 0.0316 µM) of 107%, a viability, T/C (second compound 0.0316 µM, first compound 0.1 µM) of 103% and a viability, T/C (second compound 0.0316 µM, first compound 0.316 µM) of 105%. For the same compound, the viability, T/C (second compound 0.0316 µM, first compound 1 µM) was 102%, the viability, T/C (second compound 0.0316 µM, first compound 3.16 µM) was 105% and the viability, T/C (second compound 0.0316 µM, first compound 10 µM) was 82.4%. The viability, T/C (second compound 0.1 µM, first compound 0.0316 µM) was 94.6%, the viability, T/C (second compound 0.1 µM, first compound 0.1 µM) was 99.1% and the viability, T/C (second compound 0.1 µM, first compound 0.316 µM) was 93.1%. For the same compound, the viability, T/C (second compound 0.1 µM, first compound 1 µM) was 100%, the viability, T/C (second compound 0.1 µM, first compound 3.16 µM) was 97.4% and the viability, T/C (second compound 0.1 µM, first compound 10 µM) was 86.4%. The viability, T/C (second compound 0.316 µM, first compound 0.0316 µM) was 88.1%, the viability, T/C (second compound 0.316 µM, first compound 0.1 µM) was 94% and the viability, T/C (second compound 0.316 µM, first compound 0.316 µM) was 88.6%. The viability, T/C (second compound 0.316 µM, first compound 1 µM) was 87.9%, the viability, T/C (second compound 0.316 µM, first compound 3.16 µM) was 87.5% and the viability, T/C (second compound 0.316 µM, first compound 10 µM) was 76%. For the same compound, the viability, T/C (second compound 1 µM, first compound 0.0316 µM) was 75.9%, the viability, T/C (second compound 1 µM, first compound 0.1 µM) was 82.1% and the viability, T/C (second compound 1 µM, first compound 0.316 µM) was 79.3%. The viability, T/C (second compound 1 µM, first compound 1 µM) was 78%, the viability, T/C (second compound 1 µM, first compound 3.16 µM) was 76.1% and the viability, T/C (second compound 1 µM, first compound 10 µM) was 79.6%.

With `Cn1cnc2c(F)c(Nc3ccc(Br)cc3Cl)c(C(=O)NOCCO)cc21` + CC(Nc1ccc2c(c1)OCCn1cc(N3C(=O)OCC3C(F)F)nc1-2)C(N)=O the IC50 [1] was 2590 nM, the IC50 [2] was over 3000 nM and the IC50 [3] was 2110 nM. For the same compound, the IC50 [4] was 1140 nM, the IC50 [5] was 556 nM and the IC50 [6] was 158 nM. It also gave a viability, T/C (second compound 0.00316 µM, first compound 0.00949 µM) of 91.9%, a viability, T/C (second compound 0.00316 µM, first compound 0.03 µM) of 94.6% and a viability, T/C (second compound 0.00316 µM, first compound 0.0949 µM) of 80.4%. The viability, T/C (second compound 0.00316 µM, first compound 0.3 µM) was 80.1%, the viability, T/C (second compound 0.00316 µM, first compound 0.949 µM) was 75% and the viability, T/C (second compound 0.00316 µM, first compound 3 µM) was 45.5%. The viability, T/C (second compound 0.01 µM, first compound 0.00949 µM) was 99.4%, the viability, T/C (second compound 0.01 µM, first compound 0.03 µM) was 92.8% and the viability, T/C (second compound 0.01 µM, first compound 0.0949 µM) was 81.1%. For the same compound, the viability, T/C (second compound 0.01 µM, first compound 0.3 µM) was 72.4%, the viability, T/C (second compound 0.01 µM, first compound 0.949 µM) was 63.8% and the viability, T/C (second compound 0.01 µM, first compound 3 µM) was 51.9%. The viability, T/C (second compound 0.0316 µM, first compound 0.00949 µM) was 96.2%, the viability, T/C (second compound 0.0316 µM, first compound 0.03 µM) was 92.9% and the viability, T/C (second compound 0.0316 µM, first compound 0.0949 µM) was 83.8%. It also gave a viability, T/C (second compound 0.0316 µM, first compound 0.3 µM) of 70.4%, a viability, T/C (second compound 0.0316 µM, first compound 0.949 µM) of 62% and a viability, T/C (second compound 0.0316 µM, first compound 3 µM) of 45%. It also gave a viability, T/C (second compound 0.1 µM, first compound 0.00949 µM) of 90.8%, a viability, T/C (second compound 0.1 µM, first compound 0.03 µM) of 83.3% and a viability, T/C (second compound 0.1 µM, first compound 0.0949 µM) of 76.1%. It also gave a viability, T/C (second compound 0.1 µM, first compound 0.3 µM) of 73.2%, a viability, T/C (second compound 0.1 µM, first compound 0.949 µM) of 53.8% and a viability, T/C (second compound 0.1 µM, first compound 3 µM) of 28.5%. For the same compound, the viability, T/C (second compound 0.316 µM, first compound 0.00949 µM) was 86%, the viability, T/C (second compound 0.316 µM, first compound 0.03 µM) was 82.8% and the viability, T/C (second compound 0.316 µM, first compound 0.0949 µM) was 63.9%. For the same compound, the viability, T/C (second compound 0.316 µM, first compound 0.3 µM) was 62.4%, the viability, T/C (second compound 0.316 µM, first compound 0.949 µM) was 43.8% and the viability, T/C (second compound 0.316 µM, first compound 3 µM) was 14.7%. It also gave a viability, T/C (second compound 1 µM, first compound 0.00949 µM) of 72.8%, a viability, T/C (second compound 1 µM, first compound 0.03 µM) of 57.3% and a viability, T/C (second compound 1 µM, first compound 0.0949 µM) of 57.1%. The viability, T/C (second compound 1 µM, first compound 0.3 µM) was 46.4%, the viability, T/C (second compound 1 µM, first compound 0.949 µM) was 26.2% and the viability, T/C (second compound 1 µM, first compound 3 µM) was 8.6%.
